Source: patent US6466814B1, “Method of magnetic resonance investigation” (Amersham Health AS, priority 1998, dated 2002)
Read-outs that look alike come from different tables or passages of the source.

Assays:
[1] = T1 in the blood after injection of the dissolved polarised agent; assay type: in vivo; settings: 300 mg dissolved in 10 ml Ringers Solution, 37° C., pH 7.4, injected
Procedure: 300 mg of sterile Na2^13CO3 or NaH^13CO3 is placed inside a 10 ml plastic injection syringe. The gas inside the syringe is enriched with >20% […]. The syringe is placed inside a magnet (1-20 T) at a temperature of about 4 K (0.001-5 K) until thermodynamic equilibrium is reached.
The syringe is removed and transported to the subject located in the MRI magnet. 10 ml of sterile Ringers Solution (at 37° C., pH 7.4) is aspirated and injected at a rate of 10 ml/sec immediately after the high T1 agent has dissolved. 13C MRI is performed using a fast pulse sequence. T1 in the blood is about 20 s and the distribution of the agent is followed on the MR imager.

[2] = solid
Excerpt: Where Mmax is the magnetisation of the sample after complete relaxation at the final field.
This procedure can be repeated after the protons have repolarised again, successively building up the carbon polarisation until the spin-temperature of the two nuclei become the same. […] Generally fluorine relaxes even faster than protons and it would be possible to include a fluorine atom in the contrast agent molecule as an internal relaxation agent.
It is also possible to use quadrupolar nuclei for this process. […] The magnetic storage field must be large enough to avoid overlap of the resonances of the wanted nucleus and any rapidly relaxing quadrupolar nuclei. It is known that this phenomenon causes the rapid relaxation of frozen ^129Xe in a low field, when spin diffusion to the quadrupolar ^131Xe becomes efficient.

[3] = T1-values for the 13C atom (water solution and solid); assay type: physicochemical; settings: 7 T
Excerpt: (§1) T1-values for the ^13C atom in 1-^13C-2,2,2′,2′,2″,2″-hexadeuterotris(hydroxymethyl)nitromethane
(§2) T1-values for the ^13C atom in 2-^13C-2,2-bis(trideuteromethyl)-1,1,3,3-tetradeuteropropane-1,3-diol

[4] = T1-values for the 13C atom in human bloodplasma; assay type: physicochemical; settings: 37° C., 7 T
Excerpt: as §1, §2

[5] = 13C-signal enhancement after low-field pumping and dissolution (solution experiments); assay type: physicochemical; settings: 20 mg solid in 3 ml deuterium oxide, 40° C., holding field 0.4 T
Procedure: A sample of solid 1-^13C-2,2,2′,2′,2″,2″-hexadeuterotris(hydroxymethyl)nitromethane was subjected to a magnetic field of 6.56 T at a temperature of 2.5 K for 10 minutes. The sample was then removed from the centre of the magnet to the stray field (7 mT) for a duration 1 s and then returned to the magnet. After another 10 minutes the process was repeated one more.
(§3) A sample of solid 1-^13C-2,2,2′,2′,2″,2″-hexadeuterotris(hydroxymethyl)nitromethane (20 mg) was subjected to the above-mentioned pumping procedure (see Examples 5-7) and then in less than 1 second moved to a holding field of 0.4 T where also a sample of deuterium oxide (3 ml) at a temperature of 40° C., stirred by nitrogen bubbling, was kept. […] The sample was inserted into the spectrometer and a ^13C-spectrum was recorded. […]
as §3, with “2-^13C-2,2-bis(trideuteromethyl)-1,1,3,3-tetradeuteropropane-1,3-diol” for “1-^13C-2,2,2′,2′,2″,2″-hexadeuterotris(hydroxymethyl)nitromethane”

Row | T1 in the blood [1] | SMILES | T1-value for the 13C atom ([3]; H2O, air saturated, 37° C.) [s] | T1-value for the 13C atom ([3]; H2O, degassed, 37° C.) [s] | T1-value for the 13C atom ([3]; Solid, 2.5 K) [s] | T1-value for the 13C atom ([3]; Solid, 20° C.) [s] | T1-value for the 13C atom [4] [s] | Time until a clear solution was obtained [5] | further results
1 | about 20 s | O=[13C]([O-])O.[Na+] [NaH^13CO3, sodium bicarbonate—^13C] |  |  |  |  |  |  | 
2 | about 20 s | O=[13C]([O-])[O-].[Na+].[Na+] [Na2^13CO3] |  |  |  |  |  |  | 
3 |  | CC(=O)[O-].[Na+] [sodium acetate] |  |  |  |  |  |  | T1,0 (time constant for relaxation at no external magnetic field) ([2]; carbonyl carbon): about 5 seconds; T1 of the carbonyl carbon ([2]; at 7 T): 1700 s; T1 of the carbonyl carbon ([2]; room temperature): 1700 s; T1 of the protons ([2]; room temperature): 31 s; T1 of the sodium ions ([2]; room temperature): 1.7 s
4 |  | [2H]C([2H])([2H])[13C](C([2H])([2H])[2H])(C([2H])([2H])O)C([2H])([2H])O [2-^13C-2,2-bis(trideuteromethyl)-1,1,3,3-tetradeuteropropane-1,3-diol] | 133 | 157 | 162000 | 237 | 96 | less than 1 S | 
5 |  | [2H]C([2H])(O)[13C]([N+](=O)[O-])(C([2H])([2H])O)C([2H])([2H])O [1-^13C-2,2,2′,2′,2″,2″-hexadeuterotris(hydroxymethyl)nitromethane] | 95 | 102 | 198000 | 1320 | 60 | less than 1 S | T1-value for the 13C atom ([3]; Solid, −30° C.): 2820 s
